Data taken from patent US20100130613A1, “ADMINISTRATION OF ADAPALENE FOR MODULATING THE EXPRESSION OF CD1d OR IL-10” (GALDERMA RESEARCH & DEVELOPMENT, priority 2007, published 2010).

What was measured:
[1] = test system: IL-10; assay: IL-10 expression in healthy human skin explants, immunohistochemistry; type: cell-based; conditions: 24 hours
Method: (§1) Healthy human skin: fragments of healthy skin originating from 8 healthy donors were obtained from a mammary plasty (plastic surgery) or a foreskin (infant surgery).
(§2) Fragments (4 mm in diameter) originating from biopsies of inflammatory skin, considered to be an inflammatory model, and of healthy skin, were incubated at 37° C. in a humid atmosphere and in the presence of 5% CO2 for 24 hours in KGM culture medium without hydrocortisone (PromoCell GmbH, Heidelberg, Germany). The culture medium was supplemented with two different concentrations of adapalene (Galderma, Sophia Antipolis, France): 10^−7 M and 10^−6 M. The culture medium alone served as control medium.
(§3) After incubation, the explants were removed from the culture medium and were then frozen in liquid nitrogen for the immunohistochemical study. The culture supernatants were stored at −80° C. for subsequent measurement of protein secretion, by an ELISA assay technique. […]
(§4) The labeling intensity was quantified according to a semi-quantitative scale: none (0), weak (1), medium (2) and strong (3). For each slide, the labeling intensity was determined using a mean of three fields. […] The reading was performed by two independent investigators.
(§5) All the results are expressed as mean +/−SEM. The statistical significance of differences from the values (by comparison to the control medium) was determined by means of the paired Wilcoxon test. […]

[2] = test system: free radicals; conditions: background statement; cited from earlier work
[3] = molecular target: T1, RARγ (Homo sapiens, UniProt P13631); conditions: background statement; cited from earlier work
T1 sequence (P13631 1-454): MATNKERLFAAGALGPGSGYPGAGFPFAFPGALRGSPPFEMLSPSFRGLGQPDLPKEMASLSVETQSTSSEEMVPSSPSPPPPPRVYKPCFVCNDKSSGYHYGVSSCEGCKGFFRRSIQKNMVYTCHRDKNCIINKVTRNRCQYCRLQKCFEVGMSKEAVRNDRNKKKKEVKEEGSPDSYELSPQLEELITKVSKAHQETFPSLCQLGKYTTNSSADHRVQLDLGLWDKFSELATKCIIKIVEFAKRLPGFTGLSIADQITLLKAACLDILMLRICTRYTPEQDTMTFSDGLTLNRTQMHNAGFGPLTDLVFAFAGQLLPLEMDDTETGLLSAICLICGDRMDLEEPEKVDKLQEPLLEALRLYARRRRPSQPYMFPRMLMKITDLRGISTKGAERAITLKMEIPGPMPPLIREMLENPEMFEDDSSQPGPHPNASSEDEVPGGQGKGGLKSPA

[4] = test system: superficial inflammatory lesions; conditions: clinically; Millikan, Int. J. Dermatol. 2000; cited from earlier work
[5] = test system: polymorphonuclear neutrophils; conditions: background statement; cited from earlier work
[6] = test system: lipoxygenase pathway; conditions: background statement; cited from earlier work
[7] = test system: leukotrienes; conditions: background statement; cited from earlier work
[8] = test system: IL-10; assay: IL-10 secretion in culture supernatants of healthy human skin explants, ELISA; type: cell-based; conditions: 24 hours, control medium 17.8 pg/ml
Method: as §1, §2
After incubation, the explants were removed from the culture medium and were then frozen in liquid nitrogen for the immunohistochemical study. […]
(§6) The concentrations of IL-10 were measured in the culture supernatants using a solid-phase ELISA (Enzyme Linked ImmunoSorbent Assay) sandwich kit, obtained from BioSource (International Inc, Ca, USA).
(§7) The slides were read at 450 nm using an Emax reader (Molecular Devices, CA, USA). […]
as §5

[9] = test system: IL-10; assay: IL-10 expression in acneic skin explants, immunohistochemistry; type: cell-based, human; conditions: 24 hours, control medium 1.9 (+/−0.4)
From the text: (§8) Inflammatory lesions of acne: a skin biopsy (1×1.5 cm) was obtained under local anaesthesia from a superficial inflammatory lesion (papula) on the back in 8 patients suffering from moderate acne and undergoing no topical treatment (for the last two weeks) or general treatment (for the last month, or three months for isotretinoin). The fragments taken were immediately placed in culture.
as §2, with “medium. […]” for “medium.”
as §4, §5

[10] = test system: IL-10; assay: IL-10 secretion in culture supernatants of acneic skin explants, ELISA; type: cell-based, human; conditions: 24 hours, control medium 5.7 pg/ml (+/−7.1)
From the text: as §8
as §2, with “medium. […]” for “medium.”
as §6, §7, §5

[11] = test system: cellular retinoic acid binding proteins; conditions: background statement; cited from earlier work
[12] = molecular target: T2, RARβ (Homo sapiens, UniProt P10826); conditions: background statement; cited from earlier work
T2 sequence (P10826 1-455): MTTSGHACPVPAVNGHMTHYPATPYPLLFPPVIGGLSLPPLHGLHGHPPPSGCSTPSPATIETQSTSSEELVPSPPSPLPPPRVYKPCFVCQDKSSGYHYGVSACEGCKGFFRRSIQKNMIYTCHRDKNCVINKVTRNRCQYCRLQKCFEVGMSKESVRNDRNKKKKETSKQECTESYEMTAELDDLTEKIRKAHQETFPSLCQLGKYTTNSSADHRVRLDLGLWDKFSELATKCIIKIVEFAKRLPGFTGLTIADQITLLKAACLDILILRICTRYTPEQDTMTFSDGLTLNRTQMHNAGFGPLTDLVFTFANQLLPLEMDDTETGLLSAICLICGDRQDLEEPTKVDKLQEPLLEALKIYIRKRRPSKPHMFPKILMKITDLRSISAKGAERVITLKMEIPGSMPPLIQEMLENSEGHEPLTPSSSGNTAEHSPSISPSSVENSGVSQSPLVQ

[13] = test system: CD1d; assay: CD1d expression in healthy human skin explants, immunohistochemistry; type: cell-based; conditions: 24 hours, versus control medium
Method: as §1, §2, §3, §4, §5

[14] = test system: CD1d; assay: CD1d expression in acneic skin explants, immunohistochemistry; type: cell-based, human; conditions: 24 hours, control medium 0.9 (+/−0.2), p=0.034
From the text: as §8
as §2, with “medium. […]” for “medium.”
as §4, §5

COc1ccc(-c2ccc3cc(C(=O)O)ccc3c2)cc1C12CC3CC(CC(C3)C1)C2 [adapalene, 6-[3-(1-adamantyl)-4-methoxyphenyl]-2-naphthoic acid]
inhibitory effect on the expression of IL-10 ([1]; 10^−6 M adapalene, versus control medium, p=0.016): significant
expression of IL-10 in the epidermis (labeling intensity) ([1]; 10^−7 M and 10^−6 M adapalene, dose-dependent): significantly decreases
production of free radicals [2]: inhibits
binding to RARγ [3]: binds selectively
clinical activity on superficial inflammatory lesions [4]: exhibits an activity on superficial inflammatory lesions
chemotaxis of polymorphonuclear neutrophils [5]: inhibits
oxidative metabolism of arachidonic acid via the lipoxygenase pathway [6]: inhibits
production of leukotrienes via the lipoxygenase pathway [7]: inhibits
secretion of IL-10 in supernatants ([8]; 10^−6 M adapalene): No modulation
secretion of IL-10 in supernatants ([8]; 10^−7 M adapalene): increases the secretion of IL-10
intensity of IL-10 expression (scale 0-3, mean +/−SEM) ([9]; 10^−6 M adapalene, p=0.0199): 0.6 (+/−0.2)
intensity of IL-10 expression (scale 0-3, mean +/−SEM) ([9]; 10^−7 M adapalene, p=0.024): 0.9 (+/−0.2)
IL-10 level in supernatants ([10]; 10^−6 M adapalene): 4.0 pg/mL
IL-10 level in supernatants ([10]; 10^−7 M adapalene): 6.1 pg/mL
binding to cellular retinoic acid binding proteins [11]: does not, on the other hand, bind
binding to RARβ [12]: binds selectively
expression of CD1d in the epidermis (labeling intensity) ([13]; 10^−6 M adapalene, p=0.035): significantly decreases
expression of CD1d in the epidermis (labeling intensity) ([13]; 10^−7 M adapalene, p=0.023): significantly decreases
expression of CD1d (labeling intensity, scale 0-3, mean +/−SEM) ([14]; 10^−6 M adapalene): 1.5 (+/−0.5)
expression of CD1d (labeling intensity, scale 0-3, mean +/−SEM) ([14]; 10^−7 M adapalene): 1.5 (+/−0.5)
